Assay results from US7723356B2, “Quinuclidine derivatives and their use as muscarinic m3 receptor antagonists” (Novartis AG, priority 2004, dated 2010).

These compounds were tested against T1, human muscarinic acetylcholine M3 receptor (Homo sapiens, UniProt P20309) (assay: competitive filtration binding assay with [3H] n-methyl scopolamine (NMS)). Settings: M3 Ki, membranes from CHO cells stably transfected with human M3 receptor; [3H]NMS 0.25 nM; 17 hours at room temperature; Cheng-Prusoff correction.
T1 construct: expressed in transfected cells; host or cells: CHO cells (stably transfected), membrane preparation
T1 sequence (P20309 whole entry): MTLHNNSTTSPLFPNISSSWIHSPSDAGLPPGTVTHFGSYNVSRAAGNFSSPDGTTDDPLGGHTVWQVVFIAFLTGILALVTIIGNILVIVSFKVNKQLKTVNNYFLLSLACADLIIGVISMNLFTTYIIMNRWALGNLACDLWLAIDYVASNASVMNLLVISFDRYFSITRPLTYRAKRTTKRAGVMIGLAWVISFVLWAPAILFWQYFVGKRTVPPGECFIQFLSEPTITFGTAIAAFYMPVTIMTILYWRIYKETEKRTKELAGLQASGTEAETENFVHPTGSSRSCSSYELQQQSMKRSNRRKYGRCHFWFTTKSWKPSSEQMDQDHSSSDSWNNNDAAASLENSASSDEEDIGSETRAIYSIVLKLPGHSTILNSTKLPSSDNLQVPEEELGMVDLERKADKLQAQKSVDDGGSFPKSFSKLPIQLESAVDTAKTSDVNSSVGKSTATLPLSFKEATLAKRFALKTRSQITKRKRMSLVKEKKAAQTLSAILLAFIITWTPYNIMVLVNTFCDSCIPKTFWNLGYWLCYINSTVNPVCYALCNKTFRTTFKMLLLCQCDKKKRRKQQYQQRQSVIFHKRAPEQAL
Protocol: The affinity (Ki) of agents of the invention at the human muscarinic acetylcholine M3 receptor can be determined in a competitive filtration binding assay with the radio-labelled antagonist [^3H] n-methyl scopolamine methyl chloride. (NMS):
Membranes prepared from CHO cells stably transfected with human M3 receptor at 10 μg protein/well are incubated with serial dilutions of the agents of the invention, [^3H]NMS (0.25 nM) and assay buffer (20 mM HEPES, 1 mM MgCl2 at pH 7.4) for 17 hours at room temperature. The assay is carried out in a 250 μL final volume, in the presence of a final dimethyl sulfoxide concentration of 1%. Total binding of [^3H]NMS is determined in the absence of the agents of the invention with a corresponding substituted volume of assay buffer. Non-specific binding of [^3H] NMS is determined in the presence of 300 nM ipratropium bromide. Following the incubation period, the membranes are harvested onto a Unifilter™ GF/B filter plate containing 0.05% polyethyleneimine, using a Brandel™ filtration harvester 9600. Filter plates are dried for two hours at 35° C. before the addition of Microscint™ ‘O’ cocktail, and read on a Packard Topcount™ scintillator using a ^3H-Scintillation protocol. All IC50s are calculated with the aid of XL-Fit graph package and Ki values derived using the Cheng-Prusoff correction (Cheng Y., Prusoff W. H. (1973) Biochem. Pharmacol 22 3099-3109).

In order of rising Ki:
1. O=C(C[N+]12CCC(CC1)[C@@H](OC(=O)C(c1ccccc1)c1ccccc1)C2)Nc1ccon1 [Example 5, (R)-3-Diphenylacetoxy-1-(isoxazol-3-ylcarbamoylmethyl)-1-azonia-icyclo[2.2.2]octane bromide]  0.63 nM
2. CC(C(=O)O[C@H]1C[N+]2(CC(=O)Nc3ccon3)CCC1CC2)(c1ccccc1)c1ccccc1 [Example 4, (R)-3-(2,2-Diphenyl-propionyloxy)-1-(isoxazol-3-ylcarbamoylmethyl)-1-azonia-bicyclo[2.2.2]octane bromide]  0.65 nM
3. O=C(C[N+]12CCC(CC1)[C@@H](OC(=O)C(O)(c1ccccc1)C1CCCCC1)C2)Nc1ccon1 (stereo partly drawn) [Example 8, (R)-3-(2-Cyclohexyl-2-hydroxy-2-phenyl-acetoxy)-1-(isoxazol-3-ylcarbamoylmethyl)-1-azonia-bicyclo[2.2.2]octane bromide]  0.75 nM
4. Cc1ccc(C(O)(C(=O)O[C@H]2C[N+]3(CC(=O)Nc4ccon4)CCC2CC3)c2ccc(C)cc2)cc1 [Example 2, (R)-3-(2-Hydroxy-2,2-di-p-tolyl-acetoxy)-1-(isoxazol-3-ylcarbamoylmethyl)-1-azonia-bicyclo[2.2.2]octane bromide]  1.4 nM
5. O=C(C[N+]12CCC(CC1)[C@@H](OC(=O)C(O)(c1ccccc1Cl)c1ccccc1Cl)C2)Nc1ccon1 [Example 1, (R)-3-[2,2-Bis-(2-chloro-phenyl)-2-hydroxy-acetoxy]-1-(isoxazol-3-ylcarbamoylmethyl)-1-azonia-bicyclo[2.2.2]octane bromide]  2.3 nM

Same assay, conditions: M3 pKi, membranes from CHO cells stably transfected with human M3 receptor; [3H]NMS 0.25 nM

In order of rising Ki:
1. O=C(C[N+]12CCC(CC1)[C@@H](OC(=O)C(O)(c1ccccc1)C1CCCC1)C2)Nc1ccon1 (stereo partly drawn) [Example 11, (R)-3-(2-Cyclopentyl-2-hydroxy-2-phenyl-acetoxy)-1-(isoxazol-3-ylcarbamoyl-methyl)-1-azonia-bicyclo[2.2.2]octane bromide]  0.00631 nM
2. O=C(C[N+]12CCC(CC1)[C@@H](OC(=O)C(O)(c1cccs1)C1CCCCC1)C2)Nc1ccon1 (stereo partly drawn) [Example 10, (R)-3-(2-Cyclohexyl-2-hydroxy-2-thiophen-2-yl-acetoxy)-1-(isoxazol-3-ylcarbamoylmethyl)-1-azonia-bicyclo[2.2.2]octane bromide]  0.0115 nM
3. O=C(C[N+]12CCC(CC1)[C@@H](OC(=O)C(O)(c1ccccc1)C1CCCCC1)C2)Nc1ccon1 (stereo partly drawn) [Example 8, (R)-3-(2-Cyclohexyl-2-hydroxy-2-phenyl-acetoxy)-1-(isoxazol-3-ylcarbamoylmethyl)-1-azonia-bicyclo[2.2.2]octane bromide]  0.0126 nM
